Experimental data taken from ChEMBL document CHEMBL6109097, “Structure-based design of novel 2,4,5-trisubstituted pyrimidine derivatives as potent HIV-1 NNRTIs by exploiting the tolerant regions in NNTRIs binding pocket” (Eur J Med Chem, 2025).

Experiments:
[1] = Cytotoxicity against human MT4 cells assessed as reduction in cell viability incubated for 5 days by MTT assay; assay type: toxicity, cell-based; details: time 5 day
[2] = test system: Human immunodeficiency virus 1; experiment: Antiviral activity against wild type HIV-1 IIIB infected in human MT4 cells assessed as protection against virus-induced cytopathic effect incubated for 5 days by MTT assay; assay type: functional, organism-based; details: Human immunodeficiency virus 1, IIIB, MT4, 120 h
[3] = Selectivity index, ratio of CC50 for cytotoxicity against human MT4 cells assessed as reduction in cell viability to EC50 for antiviral activity against human MT4 cells assessed as protection against virus-induced cytopathic effect; assay type: toxicity, cell-based; details: read-out: Ratio CC50/EC50
[4] = test system: Human immunodeficiency virus 1; experiment: Antiviral activity against NNRTI-resistant HIV-1 harboring Y181C mutant infected in human MT4 cells assessed as protection against virus-induced cytopathic effect incubated for 5 days by MTT assay; assay type: functional, organism-based; details: Human immunodeficiency virus 1, MT4, 120 h
[5] = biological target: Human immunodeficiency virus type 1 reverse transcriptase (Human immunodeficiency virus 1, UniProt Q72547); experiment: Inhibition of wild type HIV-1 reverse transcriptase assessed as reduction in biotin-dUTP incorporation in cDNA preincubated with compound for 1 hr in presence of biotin-labeled dNTPs by ELISA
[6] = test system: Human immunodeficiency virus 1; experiment: Antiviral activity against NNRTI-resistant HIV-1 harboring RES056 mutant infected in human MT4 cells assessed as protection against virus-induced cytopathic effect incubated for 5 days by MTT assay; assay type: functional, organism-based; details: Human immunodeficiency virus 1, MT4, 120 h
[7] = test system: Human immunodeficiency virus 1; experiment: Antiviral activity against NNRTI-resistant HIV-1 harboring Y188L mutant infected in human MT4 cells assessed as protection against virus-induced cytopathic effect incubated for 5 days by MTT assay; assay type: functional, organism-based; details: Human immunodeficiency virus 1, MT4, 120 h
[8] = test system: Human immunodeficiency virus 1; experiment: Antiviral activity against NNRTI-resistant HIV-1 harboring K103N mutant infected in human MT4 cells assessed as protection against virus-induced cytopathic effect incubated for 5 days by MTT assay; assay type: functional, organism-based; details: Human immunodeficiency virus 1, MT4, 120 h
[9] = test system: Human immunodeficiency virus 1; experiment: Antiviral activity against NNRTI-resistant HIV-1 harboring F227L/V106A double mutant infected in human MT4 cells assessed as protection against virus-induced cytopathic effect incubated for 5 days by MTT assay; assay type: functional, organism-based; details: Human immunodeficiency virus 1, MT4, 120 h
[10] = test system: Human immunodeficiency virus 1; experiment: Antiviral activity against NNRTI-resistant HIV-1 harboring E138K mutant infected in human MT4 cells assessed as protection against virus-induced cytopathic effect incubated for 5 days by MTT assay; assay type: functional, organism-based; details: Human immunodeficiency virus 1, MT4, 120 h
[11] = test system: Human immunodeficiency virus 1; experiment: Antiviral activity against NNRTI-resistant HIV-1 harboring L100I mutant infected in human MT4 cells assessed as protection against virus-induced cytopathic effect incubated for 5 days by MTT assay; assay type: functional, organism-based; details: Human immunodeficiency virus 1, MT4, 120 h

| Structure (SMILES) | CC50 at 120 h [1] | EC50 [2] | selectivity ratio [3] | EC50 [4] | IC50 [5] | EC50 [6] | EC50 [7] | EC50 [8] | EC50 [9] | EC50 [10] | EC50 [11] |
| --- | --- | --- | --- | --- | --- | --- | --- | --- | --- | --- | --- |
| Cc1cc(/C=C/C#N)cc(C)c1Oc1nc(Nc2ccc(N3CCN(S(C)(=O)=O)CC3)c(F)c2)ncc1-c1cnc(F)nc1 | 600 nM | 6.3 nM | 95 |  |  |  |  |  |  |  |  |
| Cc1cc(/C=C/C#N)cc(C)c1Oc1nc(Nc2ccc(N3CCN(S(C)(=O)=O)CC3)c(C#N)c2)ncc1-c1cnc(F)nc1 | 30900 nM | 39 nM | 784 |  |  |  |  |  |  |  |  |
| Cc1cc(/C=C/C#N)cc(C)c1Oc1nc(Nc2ccc(N3CCN(S(C)(=O)=O)CC3)c(F)c2)ncc1-c1cnc(N)nc1 | 6700 nM | 7.3 nM | 918 |  |  |  |  |  |  |  |  |
| Cc1cc(/C=C/C#N)cc(C)c1Oc1nc(Nc2ccc(N3CCS(=O)(=O)CC3)c(C#N)c2)ncc1-c1ccc(N)nc1 | 700 nM | 41 nM | 16 |  |  |  |  |  |  |  |  |
| Cc1cc(/C=C/C#N)cc(C)c1Oc1nc(Nc2ccc(N3CCS(=O)(=O)CC3)c(C#N)c2)ncc1-c1cnc(N)nc1 | 800 nM | 31 nM | 22 |  |  |  |  |  |  |  |  |
| Cc1cc(/C=C/C#N)cc(C)c1Oc1nc(Nc2ccc(N3CCN(S(C)(=O)=O)CC3)c(F)c2)ncc1-c1ccc(N)nc1 | 75600 nM | 5.8 nM | 13000 | 180 nM | 270 nM | 100 nM | 700 nM | 6.6 nM | 180 nM | 29.8 nM | 43 nM |
| Cc1cc(/C=C/C#N)cc(C)c1Oc1nc(Nc2ccc(N3CCN(S(C)(=O)=O)CC3)c(C#N)c2)ncc1-c1ccc(F)nc1 | > 200000 nM | 26 nM | > 7620 |  |  |  |  |  |  |  |  |
| Cc1cc(/C=C/C#N)cc(C)c1Oc1nc(Nc2ccc(N3CCS(=O)(=O)CC3)c(C#N)c2)ncc1-c1ccc(F)nc1 | > 210000 nM | 27 nM | > 7830 |  |  |  |  |  |  |  |  |
| Cc1cc(/C=C/C#N)cc(C)c1Oc1nc(Nc2ccc(N3CCN(S(C)(=O)=O)CC3)c(C#N)c2)ncc1-c1cncnc1 | > 206000 nM | 8.5 nM | > 24200 | 99 nM | 290 nM | 770 nM | 890 nM | 13 nM | 190 nM | 49 nM | 39 nM |
| Cc1cc(/C=C/C#N)cc(C)c1Oc1nc(Nc2ccc(N3CCS(=O)(=O)CC3)c(F)c2)ncc1-c1cccnc1 | 82800 nM | 17 nM | 4850 | 380 nM |  | 4520 nM | 1560 nM | 12 nM | 420 nM | 64 nM | 130 nM |
| Cc1cc(/C=C/C#N)cc(C)c1Oc1nc(Nc2ccc(N3CCS(=O)(=O)CC3)c(F)c2)ncc1-c1cnc(N)nc1 | 1000 nM | 6 nM | 156 |  |  |  |  |  |  |  |  |
| Cc1cc(/C=C/C#N)cc(C)c1Oc1nc(Nc2ccc(N3CCN(S(C)(=O)=O)CC3)c(F)c2)ncc1-c1ccc(F)nc1 | > 202000 nM | 17 nM | > 11600 | 460 nM |  | 8280 nM | 4540 nM | 34 nM | 350 nM | 51 nM | 140 nM |
| Cc1cc(/C=C/C#N)cc(C)c1Oc1nc(Nc2ccc(N3CCN(S(C)(=O)=O)CC3)c(C#N)c2)ncc1-c1cccnc1 | 179000 nM | 7.9 nM | 22700 | 150 nM | 330 nM | 800 nM | 550 nM | 11 nM | 230 nM | 37 nM | 48 nM |
| Cc1cc(/C=C/C#N)cc(C)c1Oc1nc(Nc2ccc(N3CCN(S(C)(=O)=O)CC3)c(F)c2)ncc1-c1cccnc1 | > 41700 nM | 19 nM | > 2140 | 400 nM | 630 nM | 3740 nM | 2030 nM | 24 nM | 640 nM | 57 nM | 230 nM |
| Cc1cc(/C=C/C#N)cc(C)c1Oc1nc(Nc2ccc(N3CCN(S(C)(=O)=O)CC3)c(F)c2)ncc1-c1cncnc1 | > 208000 nM | 16 nM | > 12900 | 200 nM | 490 nM | 1160 nM | 2200 nM | 28 nM | 313 nM | 96 nM | 110 nM |
| Cc1cc(/C=C/C#N)cc(C)c1Oc1nc(Nc2ccc(N3CCS(=O)(=O)CC3)c(C#N)c2)ncc1-c1cnc(F)nc1 | 23900 nM | 220 nM | 110 |  |  |  |  |  |  |  |  |
| Cc1cc(/C=C/C#N)cc(C)c1Oc1nc(Nc2ccc(N3CCS(=O)(=O)CC3)c(F)c2)ncc1-c1ccc(N)nc1 | 800 nM | 3.5 nM | 239 |  |  |  |  |  |  |  |  |
| Cc1cc(/C=C/C#N)cc(C)c1Oc1nc(Nc2ccc(N3CCN(S(C)(=O)=O)CC3)c(C#N)c2)ncc1-c1cnc(N)nc1 | 38600 nM | 7.2 nM | 5390 | 42 nM |  | 280 nM | > 38600 nM | 6.7 nM | 96 nM | 39 nM | 27 nM |
| Cc1cc(/C=C/C#N)cc(C)c1Oc1nc(Nc2ccc(N3CCS(=O)(=O)CC3)c(C#N)c2)ncc1-c1cncnc1 | 2400 nM | 9.1 nM | 258 |  |  |  |  |  |  |  |  |
| Cc1cc(/C=C/C#N)cc(C)c1Oc1nc(Nc2ccc(N3CCS(=O)(=O)CC3)c(C#N)c2)ncc1-c1cccnc1 | 21800 nM | 16 nM | 1340 | 140 nM | 490 nM | 990 nM | 720 nM | 9.9 nM | 600 nM | 50 nM | 54 nM |
| Cc1cc(/C=C/C#N)cc(C)c1Oc1nc(Nc2ccc(N3CCS(=O)(=O)CC3)c(F)c2)ncc1-c1ccc(F)nc1 | > 212000 nM | 960 nM | > 221 |  |  |  |  |  |  |  |  |
| O=C1Nc2ccc(Cl)cc2[C@@](C#CC2CC2)(C(F)(F)F)O1 [EFAVIRENZ] | > 6400 nM | 5.2 nM |  | 9.8 nM |  | 373 nM | 280 nM | 78 nM |  |  |  |
| Cc1cc(C#N)cc(C)c1Oc1nc(Nc2ccc(C#N)cc2)nc(N)c1Br [ETRAVIRINE] | > 4600 nM | 3.8 nM |  |  |  | 52 nM | 23 nM |  | 8.5 nM | 9 nM | 6.5 nM |
| Cc1ccnc2c1NC(=O)c1cccnc1N2C1CC1 [NEVIRAPINE] | > 15000 nM |  |  | 6590 nM |  | > 15000 nM | > 1500 nM | 5740 nM | 10300 nM | 223 nM | 1760 nM |
